Measurements published in patent US20030022811A1, “Favorable modulation of health-related quality of life and health-related quality-adjusted time-to-progression of disease in patients with prostate cancer” (priority 2001, published 2003).
“Also recorded” adds a separate entry of the source.

Columns and labels:
Type in all cases: in vivo, human
[1] = tested on: patients having hormone refractory prostate cancer (HRPCa); test: Area under the Curve (AUC) analysis of health-related QoL domain scores, one year follow-up
Source text: The Kaplan-Meier product limit method can provide biased results if study data are obtained under certain conditions such as staggered entry of subjects into the study and/or incomplete follow-up (Biometrics. 1989; 5:781-795). Thus, a second study was implemented to verify that the conclusions derived from the Kaplan-Meier would remain robust to the length of follow-up. The assumption was that all patients were followed for one year. Patients who discontinued from the study prior to one year of observation had their last observation for all health-related QoL domains carried forward through the remainder of the year. Similarly, patients who had not completed one year of observation had their health-related QoL data carried forward through one year. If the patient experienced a clinical event within the one year period, the last observation was not carried forward. The Area under the Curve (AUC) value for each domain was computed by multiplying the health-related QoL domain score by the respective duration of that score. Finally, AUC values were aggregated across all subjects within each respective treatment group (atrasentan (10 mg), atrasentan (2.5 mg), and placebo). Aggregated AUC values for each domain were compared for differences between treatment groups using a t-test.

[2] = tested on: patients having hormone refractory prostate cancer (HRPCa); test: Health-related quality-adjusted time-to-progression (QATTP), Kaplan-Meier product limit analysis; details: for health-related QATTP, difference between the atrasentan treatment groups: 10 mg vs 2.5 mg
Protocol: The health-related QATTP model used for the practice of this invention expresses progression-free time as an equally preferable amount of time spent in full health. This is achieved by using patient-reported health-related QoL, as measured for the duration of observation or progression-free interval, to weight progression-free time. […] Patients received treatment with either 10 mg (N=89) or 2.5 mg (N=95) of atrasentan or placebo (N=104) until experiencing a clinical event indicative of disease progression as defined by palliative opiate treatment of new bone or visceral pain, palliative radiation treatment of new bone pain, or new tumor growth symptoms requiring intervention or treatment with chemotherapy. Patient-reported health-related QoL data were collected with the EORTC QLQ-30 and the FACT-G and FACT-P, both of which were administered at baseline, at six week intervals and at the patient's final visit. A patient's transformed domain score and total score from both the EORTC QLQ-30 and FACT were used to weight the time-to-progression outcome data. Transformed domain scores ranged between 0 and 1, so the reported health-related QATTP outcome was never larger than actual time to progression. Possible scores for the fourteen EORTC domains each range between […]. For six domains (physical, emotional, role, social, and cognitive functioning and global score), a higher score means a better health-related QoL. These six scores were transformed to weights by dividing the patient-reported scores by 100. For the remaining eight EORTC domains, a higher score indicates worse symptoms (a worse health-related QoL). These domains are pain, fatigue, nausea and vomiting, appetite loss, […], sleep disturbance, diarrhea, and constipation. These eight scores were converted to weight adjustments by dividing them by 100 and subtracting the result from the integer 1 to provide consistent directionality of response. […] Each patient's health-related QATTP was computed as the […] of the health-related QoL weights and the duration for which that patient experienced that health-related QoL. If a patient experienced a clinical event between two health-related QoL assessments, the set of health-related QoL domain scores immediately prior to the event were carried forward to the time of the clinical event. The mean and median health-related QATTP outcomes were then estimated using Kaplan-Meier product limit methodology (Journal of the American Statistical Association, vol.53, 1958, pp 457-481). The area under a Kaplan-Meier survival curve conveys an estimated mean health-related QATTP. This analysis was applied to both intent-to-treat (ITT) and per protocol population data. All health-related QATTP comparisons between atrasentan and placebo treatment groups were based on log-rang test statistical significance at an α of 0.05. Results of the Kaplan-Meier product limit survival method analysis are reported in Table 2 (Intent to Treat) and Table 3 (Per Protocol Population). Mean and median health-related QATTP are shown by treatment arm. Log-rank tests comparing the differences between treatment groups are also reported.

[3] = tested on: patients having hormone refractory prostate cancer (HRPCa); test: Time to disease progression, PSA progression and markers of bone metabolism
Protocol: Patients received treatment with either 10 mg (N=89) or 2.5 mg (N=95) of atrasentan or placebo (N=104) until experiencing a clinical event indicative of disease progression as defined by palliative opiate treatment of new bone or visceral pain, palliative radiation treatment of new bone pain, or new tumor growth symptoms requiring intervention or treatment with chemotherapy.

[4] = At. 10 mg, adjusted by FACT Functional Well Being, Intent to Treat
[5] = At. 10 mg, adjusted by FACT Physical Well Being, Per Protocol
[6] = 10 mg and 2.5 mg, Per Protocol subjects

CCCCN(CCCC)C(=O)CN1C[C@H](c2ccc3c(c2)OCO3)[C@@H](C(=O)O)[C@@H]1c1ccc(OC)cc1 [atrasentan, (2R,3R,4S)-2-(4-methoxyphenyl)-4-(1,3-benzodioxol-5-yl)-1-(N,N-di(n-butyl)aminocarbonylmethyl)pyrrolidine-3-carboxylic]
AUC results vs placebo group ([1]; 2.5 mg, all domains except dyspnea, social/family, functional well-being and FACT-P): significantly improved | AUC of health-related QoL domain scores, atrasentan treatment vs placebo ([1]; Intent to Treat population): no statistical differences | AUC of health-related QoL domain scores, 10 mg vs 2.5 mg groups ([1]; per-protocol population): not statistically differentiable | AUC of health-related QoL domain scores, atrasentan treatment groups vs placebo ([1]; per-protocol population, every QoL domain score): strong trends in favor | AUC for health-related QoL domain scores vs placebo ([1]; physical functioning, social functioning and pain domains): significantly (p<0.05) longer | mean health-related QATTP vs placebo ([2]; 2.5 mg, per protocol): longer | log rank test of health-related QATTP vs placebo ([2]; 2.5 mg, per protocol, all QoL domains except dyspnea and functional well-being): statistically significant | mean and median health-related QATTP, atrasentan treatment groups vs placebo ([2]; 10 mg and 2.5 mg, intent-to-treat population): no statistically significant differences | health-related QATTP, difference between the atrasentan treatment groups ([2]; intent-to-treat population): no statistically significant differences | health-related QATTP, difference between the atrasentan treatment groups ([2]; per protocol, any QoL domain): no statistical differences | health-related QATTP trend vs placebo ([2]; 10 mg, per protocol, dyspnea, global score, emotional well-being, social well-being, p<0.10): trend favored | weighted health-related QATTP vs placebo group ([2]; 10 mg, per protocol, p<0.05, all QoL domains except dyspnea, global score, emotional, social and functional well-being): significantly longer | Health-Related QATTP Mean ([2]; At. 2.5 mg, adjusted by EORTC Cognitive Functioning, Intent to Treat): 180 days | Health-Related QATTP Mean ([2]; At. 2.5 mg, adjusted by EORTC Cognitive Functioning, Per Protocol): 190 days | Health-Related QATTP Mean ([2]; At. 2.5 mg, adjusted by EORTC Constipation, Intent to Treat): 180 days | Health-Related QATTP Mean ([2]; At. 2.5 mg, adjusted by EORTC Constipation, Per Protocol): 190 days | Health-Related QATTP Mean ([2]; At. 2.5 mg, adjusted by EORTC Dyspnea, Per Protocol): 180 days | Health-Related QATTP Mean ([2]; At. 2.5 mg, adjusted by FACT Emotional Well Being, Intent to Treat): 180 days | Health-Related QATTP Mean ([2]; At. 2.5 mg, adjusted by FACT Social/Family Well Being, Intent to Treat): 160 days | Health-Related QATTP Mean ([2]; At. 2.5 mg, adjusted by FACT-G, Per Protocol): 180 days | Health-Related QATTP Mean ([2]; At. 2.5 mg, adjusted by FACT-P, Per Protocol): 160 days | Health-Related QATTP Mean ([2]; At. 10 mg, adjusted by EORTC Role Functioning, Intent to Treat): 180 days | Health-Related QATTP Mean ([2]; At. 10 mg, adjusted by EORTC Social Functioning, Intent to Treat): 190 days | Health-Related QATTP Mean [2, 4]: 140 days | Health-Related QATTP Median [2, 4]: 98 days | Health-Related QATTP Mean [2, 5]: 190 days | Health-Related QATTP Median [2, 5]: 130 days | Health-Related QATTP Mean ([2]; At. 10 mg, adjusted by FACT-G, Intent to Treat): 160 days | Health-Related QATTP Median ([2]; At. 10 mg, adjusted by FACT-G, Per Protocol): 130 days | health-related QATTP compared to placebo ([2]; both 10 mg and 2.5 mg arms, per protocol analysis): improved; also recorded: longer | time to disease progression compared to placebo ([3]; 10 mg and 2.5 mg, Per Protocol analysis): delayed | markers of bone metabolism [3, 6]: attenuated increases | time to prostate-specific antigen (PSA) progression [3, 6]: delayed | time to disease or PSA progression across treatment groups ([3]; intent-to-treat population): no statistically significant differences
